These results are taken from ChEMBL document CHEMBL1201862, “PubChem BioAssay data set” (2004).

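Protocol summary: plate cells (96-well), add compound at 5 concentrations, incubate 48 h, interpolate endpoints linearly. GI50 is the concentration that inhibits growth by half.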 Activity calls are given as the source filed them. No stated cut-off is given here; in the data, active = GI50 up to about 1.1 µM and inactive = higher.

Test systems include A549; CCRF-CEM; COLO 205; HCT-15; HL-60; HOP-92; K562; KM12; M14; NCI-H522; OVCAR-5; RPMI-8226; RXF 393; SF-268; SF-295; SF-539; SN12C; SW-620; U-251; HOP-62.
Assay in all cases: NCI anticancer screen, dose series, 48 h

As to `COc1cc(/C=C2/C(=O)N(C(=O)c3ccc(Cl)cc3)N=C2C)cc(OC)c1OC`, the GI50 in the test on A549 is > 100 µM (inactive); with CCRF-CEM it was > 100 µM (inactive); in the test on COLO 205 it was > 100 µM (inactive); in the test on HCT-15, more than 100 µM; in the test on HL-60, > 100 µM (inactive); in the test with HOP-92 it was > 100 µM (inactive). Also, the GI50 in the test with K562, with KM12, in the test with M14, in the test with NCI-H522, with OVCAR-5 and in the test with RPMI-8226 was > 100 µM (inactive) each time. The GI50 in the test with RXF 393, with SF-268, in the test with SF-295, in the test on SF-539, in the test on SN12C and in the test on SW-620 was > 100 µM (inactive) throughout. The GI50 in the test with U-251 is > 100 µM (inactive).
As to `COc1cc(/C=C(\C#N)c2nc3ccccc3o2)ccc1O`, the GI50 with A549 was 17.8 µM (inactive); in the test with CCRF-CEM, 26.3 µM (inactive); in the test with COLO 205 it was 16.9 µM (inactive); in the test with HCT-15 it was 16.4 µM; in the test on HL-60, 19.6 µM (inactive); in the test with HOP-62, 21 µM (inactive). In addition, the GI50 was 14.1 µM (inactive) in the test on HOP-92; 35.4 µM (inactive) in the test with K562; 17.6 µM (inactive) in the test on KM12; 13.6 µM (inactive) in the test on M14; 13.3 µM (inactive) with NCI-H522; 22 µM (inactive) in the test with OVCAR-5. Also, the GI50 was 21 µM (inactive) in the test on RPMI-8226; 39.5 µM (inactive) with RXF 393; 19.9 µM (inactive) in the test with SF-268; 17.6 µM (inactive) with SF-295; 12 µM (inactive) in the test on SF-539; 34.7 µM (inactive) with SN12C. In addition, in the test on U-251, the GI50 was 12.3 µM (inactive).
For `COC1=C(N)C(=O)c2nc(C)ccc2C1=O`, the GI50 in the test on A549 was 2.18 µM (inactive); in the test with CCRF-CEM, 17.2 µM (inactive); with COLO 205, 1.79 µM (inactive); in the test with HCT-15, 1.92 µM; in the test with HL-60, 2.94 µM (inactive); with HOP-62, 1.57 µM (inactive). Also, the GI50 was 9.95 µM (inactive) in the test with HOP-92; 1.87 µM (inactive) in the test with KM12; 1.88 µM (inactive) in the test with M14; 1.74 µM (inactive) with NCI-H522; 1.98 µM (inactive) with OVCAR-5; 5.21 µM (inactive) in the test on RPMI-8226. In addition, the GI50 was 1.67 µM (inactive) in the test on RXF 393; 2.11 µM (inactive) in the test on SF-268; 1.79 µM (inactive) in the test with SF-295; 1.91 µM (inactive) in the test with SF-539; 1.82 µM (inactive) with SN12C; 1.87 µM (inactive) in the test on SW-620. Besides, the GI50 with U-251 was 2.2 µM (inactive).
In the case of `CCc1nc2cc3cccnc3c(Cl)c2[nH]c1=O`, the GI50 is > 100 µM (inactive) in the test on A549; > 100 µM (inactive) with CCRF-CEM; > 100 µM (inactive) in the test with COLO 205; more than 100 µM in the test with HCT-15; > 100 µM (inactive) with HL-60; > 100 µM (inactive) in the test on HOP-62. Also, the GI50 with HOP-92 is 49.2 µM (inactive); in the test with K562, > 100 µM (inactive); with KM12 it was > 100 µM (inactive); with M14 it was > 100 µM (inactive); with NCI-H522, > 100 µM (inactive); in the test on OVCAR-5, > 100 µM (inactive). The GI50 was > 100 µM (inactive) in the test on RPMI-8226; 31.8 µM (inactive) with RXF 393; > 100 µM (inactive) with SF-268; > 100 µM (inactive) with SF-295; > 100 µM (inactive) with SN12C; > 100 µM (inactive) in the test with SW-620. Also, the GI50 in the test with U-251 was 61.5 µM (inactive).
Take `COC(=O)C1C(C(=O)OC)N(Cc2ccccc2)C(=O)N1Cc1ccccc1` (configuration not stated): the GI50 in the test on A549 is > 100 µM (inactive); with CCRF-CEM, 57.4 µM (inactive); with COLO 205, > 100 µM (inactive); in the test on HL-60, 13.3 µM (inactive); in the test on HOP-62 it was > 100 µM (inactive); in the test on HOP-92, > 100 µM (inactive). The GI50 is 45.6 µM (inactive) in the test on K562; > 100 µM (inactive) in the test on KM12; > 100 µM (inactive) with M14; 37.5 µM (inactive) in the test with NCI-H522; > 100 µM (inactive) in the test with OVCAR-5; 35 µM (inactive) in the test with RPMI-8226. Further, the GI50 is > 100 µM (inactive) in the test with RXF 393; > 100 µM (inactive) in the test on SF-268; 39.1 µM (inactive) in the test on SF-295; > 100 µM (inactive) with SF-539; > 100 µM (inactive) with SN12C; > 100 µM (inactive) in the test with SW-620. Further, the GI50 in the test with U-251 was > 100 µM (inactive).
In the case of `CN(C)CCNC(=O)c1cccc2ccc(-c3ccc(Br)cc3)nc12`, the GI50 in the test on A549 is 1.09 µM (active); with CCRF-CEM it was 1.09 µM (active); with COLO 205 it was 0.944 µM (active); in the test on HCT-15, 2.78 µM; in the test on HL-60, 1.23 µM (inactive); with HOP-62 it was 0.832 µM (active). For the same compound, the GI50 is 2.49 µM (inactive) with HOP-92; 1.7 µM (inactive) in the test on K562; 3.45 µM (inactive) in the test with KM12; 1.6 µM (inactive) in the test with NCI-H522; 2.96 µM (inactive) in the test on OVCAR-5; 1.29 µM (inactive) in the test with RPMI-8226. For the same compound, the GI50 in the test on RXF 393 was 3.96 µM (inactive); in the test with SF-268 it was 3.92 µM (inactive); with SF-295 it was 3.76 µM (inactive); in the test on SF-539, 3.13 µM (inactive); in the test with SN12C, 2.33 µM (inactive); in the test on SW-620 it was 1.17 µM (inactive). Besides, in the test with U-251, the GI50 is 2.8 µM (inactive).
For the compound `Cc1nc2ccccc2c(=O)n1/N=C(\N=N\c1ccccc1Cl)c1ccccc1Cl`, the GI50 in the test on A549 was > 100 µM (inactive); with CCRF-CEM, 77.3 µM (inactive); with COLO 205 it was > 100 µM (inactive); in the test with HCT-15, 57.1 µM; in the test on HL-60, 27.9 µM (inactive); in the test with HOP-62, 34.8 µM (inactive). Further, the GI50 with HOP-92 is 13 µM (inactive); with K562, 37.3 µM (inactive); with M14, > 100 µM (inactive); with NCI-H522 it was 22.9 µM (inactive); in the test with RPMI-8226 it was 30.1 µM (inactive); in the test with RXF 393 it was 17.9 µM (inactive). Besides, the GI50 with SF-268 was 35.1 µM (inactive); with SF-539, 27.2 µM (inactive); with SN12C, 38.8 µM (inactive); in the test on SW-620, > 100 µM (inactive); in the test with U-251, 48.5 µM (inactive).
In the case of `CCCN1CN(C(C(=O)N[C@@H]2C(=O)N3C(C(=O)O)=C(C)CSC23)c2ccccc2)CSC1=S` (some centres not stated), the GI50 with A549 is > 100 µM (inactive); with CCRF-CEM, 95.1 µM (inactive); in the test on COLO 205, 47.1 µM (inactive); in the test with HCT-15, 42 µM; in the test with HL-60, 86.9 µM (inactive); in the test with HOP-62 it was > 100 µM (inactive). The GI50 in the test with HOP-92 was > 100 µM (inactive); with K562 it was 47.6 µM (inactive); with KM12, > 100 µM (inactive); with M14 it was > 100 µM (inactive); in the test with NCI-H522 it was 23 µM (inactive); in the test on OVCAR-5, > 100 µM (inactive). In addition, the GI50 in the test on RPMI-8226 is 40.9 µM (inactive); in the test with RXF 393, 25.9 µM (inactive); with SF-268, > 100 µM (inactive); in the test with SF-295, > 100 µM (inactive); in the test on SF-539, > 100 µM (inactive); with SN12C it was > 100 µM (inactive). Further, the GI50 in the test with U-251 was > 100 µM (inactive).
As for `COc1ccc(C2COc3c(ccc(O)c3C)C2)cc1OC` (configuration not stated), the GI50 is 60.8 µM (inactive) in the test on A549; 40.7 µM (inactive) in the test with CCRF-CEM; 61.7 µM (inactive) in the test on COLO 205; 57.8 µM in the test on HCT-15; 21.6 µM (inactive) with HL-60; 163 µM (inactive) in the test with HOP-62. Moreover, the GI50 with HOP-92 is 53.5 µM (inactive); in the test with K562, 59.6 µM (inactive); in the test on KM12, 102 µM (inactive); with NCI-H522, 39.7 µM (inactive); in the test with OVCAR-5, 119 µM (inactive); in the test on RPMI-8226, 17.7 µM (inactive). Moreover, the GI50 in the test with RXF 393 was 24 µM (inactive); in the test on SF-268, 106 µM (inactive); in the test on SF-295, 58.9 µM (inactive); with SF-539 it was 106 µM (inactive); with SN12C, 104 µM (inactive); with SW-620 it was 81.3 µM (inactive). Moreover, the GI50 with U-251 was 64.6 µM (inactive).
Take `CC(=O)OCC1OC(NC(=O)N(CCCl)N=O)C(OC(C)=O)C(OC(C)=O)C1OC(C)=O` (configuration not stated): the GI50 in the test with A549 was > 100 µM (inactive); in the test on CCRF-CEM it was > 100 µM (inactive); with COLO 205, > 100 µM (inactive); in the test on HCT-15 it was more than 100 µM; with HL-60, > 100 µM (inactive); with HOP-62, > 100 µM (inactive). Further, the GI50 in the test with HOP-92, in the test with K562, in the test on KM12, in the test with NCI-H522, in the test with OVCAR-5 and in the test on RPMI-8226 was > 100 µM (inactive) throughout. For the same compound, the GI50 was > 100 µM (inactive) with RXF 393; > 80.9 µM (inactive) in the test with SF-268; 97.1 µM (inactive) in the test with SF-295; > 89.1 µM (inactive) in the test on SF-539; > 100 µM (inactive) in the test with SN12C; > 100 µM (inactive) in the test with SW-620. For the same compound, in the test with U-251, the GI50 is 98.4 µM (inactive).
As to `NC(CCCCCP(=O)(O)O)C(=O)O` (configuration not stated) [AP-7], the GI50 in the test on A549 is > 100 µM (inactive); with CCRF-CEM, > 100 µM (inactive); with COLO 205, > 100 µM (inactive); in the test with HCT-15 it was more than 100 µM; in the test with HL-60, > 100 µM (inactive); with HOP-92, > 100 µM (inactive). Further, the GI50 in the test with K562, with KM12, in the test with M14, in the test on NCI-H522, with OVCAR-5 and with RPMI-8226 was > 100 µM (inactive) in each case. The GI50 with RXF 393, in the test with SF-268, in the test with SF-295, in the test with SF-539, with SN12C and with SW-620 was > 100 µM (inactive) in each case. For the same compound, the GI50 in the test with U-251 was > 100 µM (inactive).
